Consider 3 compounds from patent publication US20150352127A1, “INHALATION PARTICLES COMPRISING A COMBINATION OF AN ANTICHOLINERGIC, A CORTICOSTEROID AND A BETA-ADRENERGIC” (CHIESI FARMACEUTICI S.P.A., priority 2014, published 2015).

Format in all cases: physicochemical
Series [1] is described as follows: Drug content of the microparticles by UPLC assay. To be noted: in spray dried microparticles of Example 1; mean±SD, n=5.
Series [2] can be described thus: Uniformity of distribution of the active ingredients in the powder formulation (UPLC-PDA). Particulars: powder formulation of Example 3; for Content: sampled 10 times. The procedure:
About 10 mg of the formulation was weighed directly into a 25 mL volumetric flask. It was sampled 10 times. The flask was made up to volume with 60:40% v/v MeOH:H2O and sonicated for 2 minutes. The samples were analyzed for each active ingredient using UPLC-PDA assay.

Series [3] is described as follows: Aerosol performances by Next Generation Impactor (NGI) from NEXThaler. Particulars: formulation of Example 3, NEXThaler, 60 L/min; mean±S.D., n=6. How it is done:
Aerosol performances were determined using the Next Generation Impactor (NGI) with a USP induction port and pre-separator containing 15 mL 60:40% v/v MeOH:H2O. […] The aerodynamic particle size distribution was based on 5 actuations from the NEXThaler®, each sampled into 4 liters of air (equivalent to an inhalation time of 4 s). The device was weighed before and after each actuation to determine the shot weight (mg). A minimum of 1 minute was allowed between consecutive actuations to allow static charge to dissipate.
Samples were collected from the NGI using a fixed volume technique. MeOH:H2O (60:40% v/v) was dispensed into the induction port (including mouthpiece); pre-separator; and each stage using an electronic metering dispenser. The induction port (30 mL) and pre-separator (50 mL) were sealed using silicone bungs and shaken by hand for 2 minutes before the samples were collected. The NGI stages (10 mL stages 1-2; 15 mL stage 3-MOC) were rocked using a NGI rocker for 3 minutes. All samples were filtered using a 0.2 μm syringe filter before analysis by UPLC-PDA.

Where a name gives a salt, the structure may show the parent alone.

Compound `C[N+]1(C)CCC(OC(=O)C(O)(c2ccccc2)C2CCCC2)C1` (racemic) [GB, glycopyrronium bromide] showed an Actual concentration in series [1] of 10.6 ± 0.1 % w/w. In series [2], the “% of Target” value is reported as 105.37% and the Content came to 12.64 ± 0.18 μg 10 mg^−1. In series [3], the “DD (delivered dose)” value is 11.5 ± 0.4 µg, the “FPF (fine particle fraction)” value is listed as 68.5 ± 3.7%, the “FPF < 1 μm (extrafine FPF)” value turned out to be 21.7 ± 0.7% and the “FPF < 2 μm (extrafine FPF)” value was 39.3 ± 1.6%. For the same compound, in series [3], the “FPM (fine particle mass, ≤5.0 micron)” value was 7.9 ± 0.5 µg and the MMAD was 1.9 ± 0.1 μm.
Consider `CCC(=O)OCC(=O)[C@@]1(OC(=O)CC)[C@@H](C)C[C@H]2[C@@H]3CCC4=CC(=O)C=C[C@]4(C)[C@@]3(Cl)[C@@H](O)C[C@@]21C` [BDP, beclometasone dipropionate], for which, in series [1], the Actual concentration was 82.0 ± 0.3 % w/w. In series [2], the “% of Target” value stood at 98.75% and the Content is 98.75 ± 1.23 μg 10 mg^−1. In series [3], the “DD (delivered dose)” value was 87.6 ± 2.2 µg, the “FPF (fine particle fraction)” value was 68.5 ± 3.1%, the “FPF < 1 μm (extrafine FPF)” value came to 20.8 ± 0.7% and the “FPF < 2 μm (extrafine FPF)” value came out at 38.6 ± 1.2%. Further, in series [3], the “FPM (fine particle mass, ≤5.0 micron)” value came to 60.0 ± 3.6 µg and the MMAD was 1.9 ± 0.1 μm.
Turning to `COc1ccc(CC(C)NCC(O)c2ccc(O)c(NC=O)c2)cc1` (stereo not shown) [FF, formoterol fumarate dihydrate], the “DD (delivered dose)” value in series [3] was found to be 5.2 ± 0.1 µg.
